Laboratory results: ChEMBL document CHEMBL4507265 (2021)

Tests used:
[1] = tested on: Epidermal growth factor receptor (Homo sapiens), P00533 [UNDEFINED MUTATION]; settings: Compound concentration 1000.0 nM
[2] = biological target: 5-hydroxytryptamine receptor 1E (Homo sapiens) (UniProt P28566); settings: Compound concentration 10.0 uM
Rattus norvegicus [3] = species on record: Rattus norvegicus; assay: Testosterone Eurofins-Panlabs radioligand binding assay; design: ligand concentration 1.5 nM; settings: Compound concentration 10.0 uM
[4] = biological target: L-type calcium channel, benzothiazepine site (Cav1.2 alpha-1C) (Homo sapiens, UniProt Q13936); assay: Inhibition of Calcium Channel L-Type, Benzothiazepine at 10 µM in the Eurofins-Panlabs radioligand binding assay (Eurofins_assay_214510); design: ligand concentration 2 nM, non-specific ligand with concentration 10 µM Diltiazem, incubation time 3h, incubation temperature 4 °C; settings: male, Wistar, rat, rat whole brain preparation, probe [3H] Diltiazem, 2 nM; compound concentration 10 uM; target entry is the homologue from another species
[5] = biological target: L-type calcium channel, dihydropyridine site (Cav1.2 alpha-1C) (Homo sapiens, UniProt Q13936); assay: Inhibition of Calcium Channel L-Type, Dihydropyridine at 10 µM in the Eurofins-Panlabs radioligand binding assay (Eurofins_assay_214600); design: ligand concentration 0.1 nM, non-specific ligand with concentration 1 µM Nitrendipine, incubation time 90 min, incubation temperature 25 °C; settings: Wistar, rat, rat cerebral cortex preparation, probe [3H] Nitrendipine, 0.1 nM; compound concentration 10 uM; target entry is the homologue from another species
[6] = biological target: Voltage-dependent N-type calcium channel subunit alpha-1B (Homo sapiens) (UniProt Q00975); assay: Inhibition of Calcium Channel N-Type at 10 µM in the Eurofins-Panlabs radioligand binding assay (Eurofins_assay_216000); settings: Rattus norvegicus; Compound concentration 10.0 uM
[7] = biological target: T1, GABA-A receptor; anion channel (Rattus norvegicus) (UniProt O09028+P15431+P18506+P18508+P19969+P20236+P23574+P23576+P28471+P28473+P30191+P62813+P63079+P63138+Q91ZM7+Q9ES14); assay: Inhibition of GABAA, Muscimol, Central at 10 µM in the Eurofins-Panlabs radioligand binding assay (Eurofins_assay_226500); assay type: protein-complex assay; settings: Compound concentration 10.0 uM
[8] = biological target: Cysteinyl leukotriene receptor 1 (Homo sapiens) (UniProt Q9Y271); assay: Inhibition of Leukotriene, Cysteinyl CysLT1 at 10 µM in the Eurofins-Panlabs radioligand binding assay (Eurofins_assay_250460); design: ligand concentration 0.3 nM, non-specific ligand with concentration 0.3 µM Leukotriene D4, incubation time 30 min, incubation temperature 25 °C; settings: Compound concentration 10.0 uM
[9] = biological target: Melatonin receptor type 1A (Homo sapiens) (UniProt P48039); assay: Inhibition of Melatonin MT1 at 10 µM in the Eurofins-Panlabs radioligand binding assay (Eurofins_assay_251600); design: ligand concentration 0.05 nM; settings: Compound concentration 10.0 uM
[10] = biological target: Neuropeptide Y receptor type 2 (Homo sapiens) (UniProt P49146); assay: Inhibition of Neuropeptide Y Y2 at 10 µM in the Eurofins-Panlabs radioligand binding assay (Eurofins_assay_257110); settings: Compound concentration 10.0 uM
[11] = biological target: Acetylcholine receptor subunit alpha (Homo sapiens) (UniProt P02708); assay: Inhibition of Nicotinic Acetylcholine D1, Bungarotoxin at 10 µM in the Eurofins-Panlabs radioligand binding assay (Eurofins_assay_258700); settings: Compound concentration 10.0 uM
[12] = biological target: Platelet-activating factor receptor (Homo sapiens) (UniProt P25105); assay: Inhibition of Platelet Activating Factor (PAF) at 10 µM in the Eurofins-Panlabs radioligand binding assay (Eurofins_assay_265010); settings: Compound concentration 10.0 uM
[13] = biological target: ATP-sensitive inward rectifier potassium channel 11 (Cricetulus griseus) (UniProt A0A3L7HHE1); assay: Inhibition of Potassium Channel [KATP] at 10 µM in the Eurofins-Panlabs radioligand binding assay (Eurofins_assay_265600); settings: Cricetinae; Compound concentration 10.0 uM
[14] = biological target: Prostaglandin E2 receptor EP4 subtype (Homo sapiens) (UniProt P35408); assay: Inhibition of Prostanoid EP4 at 10 µM in the Eurofins-Panlabs radioligand binding assay (Eurofins_assay_268420); design: ligand concentration 1 nM; settings: Compound concentration 10.0 uM
Oryctolagus cuniculus = species on record: Oryctolagus cuniculus; assay: Inhibition of Purinergic P2X at 10 µM in the Eurofins-Panlabs radioligand binding assay (Eurofins_assay_268700); assay type: protein assay; settings: Compound concentration 10.0 uM
[15] = biological target: Sigma non-opioid intracellular receptor 1 (Homo sapiens) (UniProt Q99720); assay: Inhibition of Sigma 1 at 10 µM in the Eurofins-Panlabs radioligand binding assay (Eurofins_assay_278110); design: ligand concentration 8 nM; settings: Compound concentration 10.0 uM
[16] = biological target: Adenosine receptor A1 (Homo sapiens) (UniProt P30542); settings: Compound concentration 10.0 uM
[17] = biological target: Adenosine receptor A3 (Homo sapiens) (UniProt P0DMS8); settings: Compound concentration 10.0 uM
[18] = biological target: T2, Alpha-2A adrenergic receptor (Homo sapiens) (UniProt P08913); settings: Compound concentration 10.0 uM
T2 sequence (whole entry): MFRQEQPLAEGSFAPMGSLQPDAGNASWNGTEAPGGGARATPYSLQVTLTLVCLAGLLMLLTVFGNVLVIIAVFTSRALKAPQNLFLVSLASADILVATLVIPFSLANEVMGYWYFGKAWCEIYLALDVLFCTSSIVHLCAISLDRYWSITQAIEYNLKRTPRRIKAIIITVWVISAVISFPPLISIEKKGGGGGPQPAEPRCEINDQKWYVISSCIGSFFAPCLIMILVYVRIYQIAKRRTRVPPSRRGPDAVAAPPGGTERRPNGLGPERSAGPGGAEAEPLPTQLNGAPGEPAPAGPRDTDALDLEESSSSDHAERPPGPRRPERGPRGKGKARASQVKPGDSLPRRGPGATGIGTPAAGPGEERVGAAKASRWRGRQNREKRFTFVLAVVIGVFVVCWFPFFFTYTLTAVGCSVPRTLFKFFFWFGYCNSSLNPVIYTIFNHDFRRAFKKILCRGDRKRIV

[19] = biological target: Beta-1 adrenergic receptor (Homo sapiens) (UniProt P08588); settings: Compound concentration 10.0 uM
[20] = biological target: D(2) dopamine receptor (Homo sapiens) (UniProt P14416); settings: Compound concentration 10.0 uM
[21] = biological target: D(3) dopamine receptor (Homo sapiens) (UniProt P35462); settings: Compound concentration 10.0 uM
[22] = biological target: Endothelin-1 receptor (Homo sapiens) (UniProt P25101); settings: Compound concentration 10.0 uM
[23] = biological target: T1, GABA-A receptor; anion channel (Rattus norvegicus); settings: Compound concentration 10.0 uM
[24] = biological target: Glutamate NMDA receptor (Rattus norvegicus) (UniProt P35439+Q00959+Q00960+Q00961+Q62645+Q8VHN2+Q9R1M7); settings: Compound concentration 10.0 uM
[25] = biological target: Histamine H1 receptor (Homo sapiens) (UniProt P35367); settings: Compound concentration 10.0 uM
[26] = biological target: Histamine H3 receptor (Homo sapiens) (UniProt Q9Y5N1); settings: Compound concentration 10.0 uM
[27] = biological target: Mu-type opioid receptor (Homo sapiens) (UniProt P35372); settings: Compound concentration 10.0 uM
Rattus norvegicus [28] = species on record: Rattus norvegicus; settings: Compound concentration 10.0 uM

Chain of Sigma non-opioid intracellular receptor 1 (Homo sapiens) (Q99720 whole entry): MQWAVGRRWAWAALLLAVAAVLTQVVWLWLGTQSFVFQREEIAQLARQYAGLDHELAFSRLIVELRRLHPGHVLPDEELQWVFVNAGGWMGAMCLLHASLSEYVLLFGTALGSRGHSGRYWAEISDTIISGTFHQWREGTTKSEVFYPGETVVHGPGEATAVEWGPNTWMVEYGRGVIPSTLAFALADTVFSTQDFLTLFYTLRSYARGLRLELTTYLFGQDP
Chain of Epidermal growth factor receptor (Homo sapiens), P00533 [UNDEFINED MUTATION] (P00533 whole entry, looked up, change not shown): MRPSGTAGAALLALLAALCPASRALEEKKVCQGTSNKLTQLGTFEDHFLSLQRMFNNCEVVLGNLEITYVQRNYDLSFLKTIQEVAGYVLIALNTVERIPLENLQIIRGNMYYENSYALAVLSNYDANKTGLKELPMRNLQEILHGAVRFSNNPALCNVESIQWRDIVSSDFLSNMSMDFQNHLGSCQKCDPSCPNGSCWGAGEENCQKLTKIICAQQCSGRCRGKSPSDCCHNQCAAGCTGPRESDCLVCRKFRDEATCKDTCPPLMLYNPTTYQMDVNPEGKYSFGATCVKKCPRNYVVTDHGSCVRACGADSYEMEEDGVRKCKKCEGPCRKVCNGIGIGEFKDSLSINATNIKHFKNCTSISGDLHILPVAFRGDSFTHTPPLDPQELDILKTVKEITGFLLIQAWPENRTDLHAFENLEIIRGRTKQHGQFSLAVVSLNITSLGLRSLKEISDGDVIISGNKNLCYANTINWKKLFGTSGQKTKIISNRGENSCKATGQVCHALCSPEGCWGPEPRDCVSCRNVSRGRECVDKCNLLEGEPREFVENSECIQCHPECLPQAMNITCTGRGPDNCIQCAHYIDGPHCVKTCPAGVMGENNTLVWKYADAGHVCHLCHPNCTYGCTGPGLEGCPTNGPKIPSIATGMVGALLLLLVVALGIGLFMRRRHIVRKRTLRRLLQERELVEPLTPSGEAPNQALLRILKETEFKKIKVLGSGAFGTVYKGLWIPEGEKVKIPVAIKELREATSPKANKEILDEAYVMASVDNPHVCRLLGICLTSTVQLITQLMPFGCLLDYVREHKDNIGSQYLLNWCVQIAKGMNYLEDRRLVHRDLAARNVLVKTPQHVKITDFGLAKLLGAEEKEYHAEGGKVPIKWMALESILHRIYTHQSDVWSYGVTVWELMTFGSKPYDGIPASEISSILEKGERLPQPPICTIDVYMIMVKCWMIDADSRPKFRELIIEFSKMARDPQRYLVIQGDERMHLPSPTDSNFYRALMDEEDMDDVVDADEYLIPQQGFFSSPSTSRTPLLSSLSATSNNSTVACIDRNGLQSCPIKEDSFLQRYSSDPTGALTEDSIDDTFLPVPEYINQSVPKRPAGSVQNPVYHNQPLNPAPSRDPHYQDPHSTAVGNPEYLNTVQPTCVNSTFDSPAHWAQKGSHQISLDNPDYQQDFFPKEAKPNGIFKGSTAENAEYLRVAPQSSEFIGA
Chain of Acetylcholine receptor subunit alpha (Homo sapiens) (P02708 whole entry): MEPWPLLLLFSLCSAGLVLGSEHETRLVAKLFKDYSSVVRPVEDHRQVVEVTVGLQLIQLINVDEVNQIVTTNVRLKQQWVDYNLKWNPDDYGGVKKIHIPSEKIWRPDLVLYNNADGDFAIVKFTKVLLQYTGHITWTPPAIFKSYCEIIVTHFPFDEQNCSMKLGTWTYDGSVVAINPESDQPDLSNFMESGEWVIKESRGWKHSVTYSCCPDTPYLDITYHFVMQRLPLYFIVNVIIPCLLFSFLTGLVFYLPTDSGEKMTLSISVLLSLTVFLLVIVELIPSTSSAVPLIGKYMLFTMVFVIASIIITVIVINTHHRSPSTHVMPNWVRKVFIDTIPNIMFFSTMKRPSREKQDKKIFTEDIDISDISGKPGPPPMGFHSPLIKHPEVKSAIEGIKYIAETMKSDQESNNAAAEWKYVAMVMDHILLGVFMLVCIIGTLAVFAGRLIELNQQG
Chain of D(2) dopamine receptor (Homo sapiens) (P14416 whole entry): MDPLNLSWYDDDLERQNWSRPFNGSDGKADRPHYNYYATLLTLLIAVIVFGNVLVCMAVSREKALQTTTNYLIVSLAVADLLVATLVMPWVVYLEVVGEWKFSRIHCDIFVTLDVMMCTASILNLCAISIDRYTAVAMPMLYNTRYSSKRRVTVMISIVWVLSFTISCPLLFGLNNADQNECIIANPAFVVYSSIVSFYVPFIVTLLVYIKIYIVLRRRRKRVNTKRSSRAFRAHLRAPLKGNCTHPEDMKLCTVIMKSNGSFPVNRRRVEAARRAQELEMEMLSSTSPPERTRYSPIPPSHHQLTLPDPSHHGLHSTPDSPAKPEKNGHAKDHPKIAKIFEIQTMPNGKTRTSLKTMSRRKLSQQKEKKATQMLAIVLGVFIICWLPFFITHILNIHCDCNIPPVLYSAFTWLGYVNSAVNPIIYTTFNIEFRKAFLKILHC
Chain of Voltage-dependent N-type calcium channel subunit alpha-1B (Homo sapiens) (Q00975 whole entry, looked up): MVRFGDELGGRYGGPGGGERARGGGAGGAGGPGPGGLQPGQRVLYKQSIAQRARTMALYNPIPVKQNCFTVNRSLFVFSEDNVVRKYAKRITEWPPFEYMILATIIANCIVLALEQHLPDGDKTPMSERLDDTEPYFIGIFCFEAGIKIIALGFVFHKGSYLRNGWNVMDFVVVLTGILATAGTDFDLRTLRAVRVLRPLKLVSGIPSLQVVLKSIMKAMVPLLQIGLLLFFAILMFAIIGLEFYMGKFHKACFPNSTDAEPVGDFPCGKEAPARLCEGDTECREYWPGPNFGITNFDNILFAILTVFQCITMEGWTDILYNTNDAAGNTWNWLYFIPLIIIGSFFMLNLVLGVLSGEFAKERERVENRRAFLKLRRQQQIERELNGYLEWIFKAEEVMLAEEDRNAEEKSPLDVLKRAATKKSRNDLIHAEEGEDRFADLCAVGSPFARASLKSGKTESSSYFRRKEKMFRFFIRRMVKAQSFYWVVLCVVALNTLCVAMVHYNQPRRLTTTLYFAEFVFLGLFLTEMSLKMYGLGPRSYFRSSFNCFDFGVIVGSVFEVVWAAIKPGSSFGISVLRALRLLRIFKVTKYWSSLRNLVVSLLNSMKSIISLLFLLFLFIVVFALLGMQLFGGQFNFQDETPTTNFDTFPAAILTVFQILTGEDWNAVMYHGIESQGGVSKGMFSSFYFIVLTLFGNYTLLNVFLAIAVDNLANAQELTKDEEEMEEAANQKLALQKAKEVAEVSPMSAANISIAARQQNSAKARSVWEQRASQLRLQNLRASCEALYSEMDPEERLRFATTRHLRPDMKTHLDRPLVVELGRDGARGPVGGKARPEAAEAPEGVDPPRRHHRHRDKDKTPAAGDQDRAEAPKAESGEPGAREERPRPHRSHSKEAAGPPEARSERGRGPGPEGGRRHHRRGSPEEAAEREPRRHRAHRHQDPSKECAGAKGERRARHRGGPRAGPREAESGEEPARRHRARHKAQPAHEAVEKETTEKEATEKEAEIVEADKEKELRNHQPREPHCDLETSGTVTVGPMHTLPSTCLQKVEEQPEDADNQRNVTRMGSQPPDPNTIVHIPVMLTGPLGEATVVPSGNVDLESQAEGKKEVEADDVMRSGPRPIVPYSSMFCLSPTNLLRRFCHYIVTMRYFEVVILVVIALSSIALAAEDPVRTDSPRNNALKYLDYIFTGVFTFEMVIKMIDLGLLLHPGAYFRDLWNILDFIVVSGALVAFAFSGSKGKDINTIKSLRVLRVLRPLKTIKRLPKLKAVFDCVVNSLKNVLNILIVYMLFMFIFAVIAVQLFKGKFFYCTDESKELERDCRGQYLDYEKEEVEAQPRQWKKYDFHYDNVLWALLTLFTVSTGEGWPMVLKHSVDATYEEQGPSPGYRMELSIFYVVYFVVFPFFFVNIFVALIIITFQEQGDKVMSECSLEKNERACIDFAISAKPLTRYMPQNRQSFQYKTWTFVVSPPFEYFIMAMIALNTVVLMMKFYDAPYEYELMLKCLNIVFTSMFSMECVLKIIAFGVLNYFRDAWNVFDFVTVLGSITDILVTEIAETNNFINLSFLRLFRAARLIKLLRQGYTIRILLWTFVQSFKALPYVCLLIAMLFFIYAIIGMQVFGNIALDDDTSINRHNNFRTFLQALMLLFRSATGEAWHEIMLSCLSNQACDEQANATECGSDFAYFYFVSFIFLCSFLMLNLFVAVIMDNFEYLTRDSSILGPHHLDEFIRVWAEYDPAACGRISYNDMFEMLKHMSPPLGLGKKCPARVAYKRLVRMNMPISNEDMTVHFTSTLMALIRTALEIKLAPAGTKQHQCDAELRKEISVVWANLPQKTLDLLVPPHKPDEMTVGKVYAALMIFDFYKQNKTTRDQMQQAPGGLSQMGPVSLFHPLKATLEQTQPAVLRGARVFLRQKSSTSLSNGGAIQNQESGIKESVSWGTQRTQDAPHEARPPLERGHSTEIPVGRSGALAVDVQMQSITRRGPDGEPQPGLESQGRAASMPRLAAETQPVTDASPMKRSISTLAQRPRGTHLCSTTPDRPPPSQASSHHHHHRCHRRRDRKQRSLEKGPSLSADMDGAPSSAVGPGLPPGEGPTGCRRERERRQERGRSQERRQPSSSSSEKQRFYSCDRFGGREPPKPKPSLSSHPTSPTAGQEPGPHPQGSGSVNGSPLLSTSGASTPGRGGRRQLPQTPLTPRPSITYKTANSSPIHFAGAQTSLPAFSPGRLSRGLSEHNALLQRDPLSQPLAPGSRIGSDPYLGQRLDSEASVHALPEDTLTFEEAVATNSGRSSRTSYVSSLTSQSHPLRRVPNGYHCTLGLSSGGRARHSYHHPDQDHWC
Chain of Adenosine receptor A3 (Homo sapiens) (P0DMS8 whole entry): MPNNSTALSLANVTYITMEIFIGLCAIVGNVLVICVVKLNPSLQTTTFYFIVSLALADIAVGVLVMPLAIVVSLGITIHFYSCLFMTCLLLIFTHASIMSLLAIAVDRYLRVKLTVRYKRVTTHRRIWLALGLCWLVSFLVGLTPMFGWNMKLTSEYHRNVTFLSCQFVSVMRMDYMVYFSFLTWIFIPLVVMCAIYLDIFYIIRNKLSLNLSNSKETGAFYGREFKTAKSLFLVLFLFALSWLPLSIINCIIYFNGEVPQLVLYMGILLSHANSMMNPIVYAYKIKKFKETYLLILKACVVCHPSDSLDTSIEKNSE

NS(=O)(=O)c1cc(NC(=O)C2(c3ccccc3Cl)CC2)ccc1Oc1cccc(Cl)c1 [BAY-207]
inactive: residual activity [1] 75% | inhibition [2] -1.46%

NS(=O)(=O)c1cc(NC(=O)Cc2ccccc2)ccc1Oc1cccc(Cl)c1 [BAY-1797]
21% (not active): inhibition at 90 min, 10 µM [5]
17% (not active): inhibition at 3 h, 10 µM [4]
inactive: inhibition (Rattus norvegicus [3]) 17% | inhibition [6] 6% | inhibition [7] 15% | inhibition [8] 8% | inhibition [9] 13% | inhibition [10] 8% | inhibition [11] -4% | inhibition [12] -2% | inhibition [13] -9% | inhibition [14] 21% | inhibition (Oryctolagus cuniculus) 5% | inhibition [15] 3% | inhibition [16] 35% | inhibition [17] 47% | inhibition [18] 26% | inhibition [19] 3% | inhibition [20] 15% | inhibition [21] 28% | inhibition [22] 3% | inhibition [23] 0% | inhibition [24] 23% | inhibition [25] 15% | inhibition [26] 0% | inhibition [27] 9% | inhibition (Rattus norvegicus [28]) -10%
